System: response of the rabbit colon in vitro to bradykinin
Test: Inhibition of the bradykinin response of rabbit colon mucosa in vitro (transepithelial potential difference and short circuit current, Ussing chambers)
Type: cell-based, New Zealand white male rabbits
Settings: Oryctolagus cuniculus, 0.5 h, incubated 30 min prior to bradykinin (1×10^-6 M), read-out: ED50 (the source's name)
From the text: Measurement of transepithelial potential difference (PD) and short circuit current (Isc)
New Zealand white male rabbits (2-3 kg) were fed standard rabbit chow and water ad lib. Rabbits were killed by cervical dislocation, and the distal colon or ileum removed rapidly, opened along its mesenteric border, and rinsed clean of luminal contents with cold Ringer's solution containing, in mmol/liter NaCl, 114; KCl, 5; NaH2 PO4, 0.3; CaCl2, 1.25; MgCl2, 1.1; and NaHCO3, 25 (standard Ringer). Before use, tissues were maintained in ice-cold Ringer with 95% O2 /5% CO2. The standard ringer solution also contained captopril (5×10^-6 M) to inhibit bradykinin metabolism.
The serosa and two muscle layers were removed by placing a 10 cm strip of ileum, serosa up, on a Lucite plate, making a transverse cut through both external muscle layers with a razor blade, and stripping off the layers longitudinally.
Transepithelial electrical potential difference (PD), total conductance (Gt), and short circuit current (Isc) were measured as described by M. Field et al (A M J. Physiol, 220 1388-1396). Six pieces of mucosa were mounted in Ussing chambers (1.12 cm^2 cross-sectional area), and bathed with 8 ml of standard Ringer on each side. Solutions were circulated by gas lift and maintained at 37° C. in water jacketed reservoirs. […]

Row | SMILES | IC50 [µM]
1 | CNC1=NN(c2cccc(C(F)(F)F)c2)CC1 [R^1 CH3, 3-methylamino-1-(3-trifluoromethylphenyl)-2-pyrazoline] | 50
2 | NC1=NN(c2cccc(C(F)(F)F)c2)CC1 [R^1 H, 3-amino-1-(3-trifluoromethylphenyl)-2-pyrazoline] | 200

— patent publication US4448783A, “Substituted pyrazoline, and its use in treatment of gastro-intestinal disturbances” (Burroughs Wellcome Co., priority 1982, dated 1984)
